Results reported in publication PMC8427442 (Frontiers in Pharmacology, 2021).
Where “and” joins values, the source holds several entries; their conditions need not be identical. Equal values may be shown once.

Key:
[1] = molecular target: SARS-CoV-2 3CLpro (Severe acute respiratory syndrome coronavirus 2, UniProt P0DTD1); experiment: Protease activity assay with IQF peptide substrate, dose-response; type: biochemical; conditions: for IC50: IC50 against SARS-CoV-2 3CLpro, 0.125 µM 3CLpro, 1 h preincubation at 37°C, 1.25 µM IQF peptide substrate, 3 h, N = 3, mean ± SEM; for relative SARS-CoV-2 3CLpro activity (down from 100%): compound at 12.5 µM, data not shown
[2] = tested on: IL-6, IL-1β, IL-8 mRNA; experiment: Proinflammatory gene mRNA by RT-PCR in LPS-stimulated A549 cells; type: cell-based, human; conditions: 20 µM; for potency in reducing the levels of the four proinflammatory factors (TNF-α, IL-6, IL-1β, IL-8), compared to UJ: LPS-stimulated A549 cells
[3] = molecular target: SARS-CoV 3CLpro (Severe acute respiratory syndrome coronavirus, UniProt P0C6X7); type: biochemical
[4] = in vitro; conditions: African green monkey, half-maximal cytotoxic concentration (CC50)
[5] = tested on: TNF-α; experiment: TNF-α protein level by western blot in LPS-stimulated A549 cells; type: cell-based, human; conditions: 20 µM, 1 h before 10 μg/ml LPS, 24 h
Excerpt: For western blot analysis, an equal amount of the samples were resolved by SDS-PAGE, followed by transfer to PVDF membranes, following the protocol published previously ([Chiang et al., 2020]). Antibodies against TNF-α (GTX110520) and β-actin (GTX109639) were purchased from GeneTex, Taiwan. HRP-conjugated secondary antibodies were from Jackson ImmunoResearch Laboratories, Inc., United States. WesternBright® ECL kits were used for protein visualization (Advansta Inc., United States). Levels of protein expression were quantified in Fiji ([Schindelin et al., 2012]).
Human alveolar basal epithelial A549 cells have been used to investigate several lung diseases at the cellular level, including endotoxin-induced acute pneumonia ([Zhang J. et al., 2020]). To evaluate the anti-inflammatory effect of UJ, A549 cells were induced with lipopolysaccharide (LPS) for 24 h with or without treatment with UJ. Dexamethasone (Dex), an anti-inflammatory agent ([Chen et al., 2021]), was included as a positive control. […] In addition, the expression levels of proinflammatory genes, including interleukin 1β (IL-1β), IL-6 and IL-8 increased by 1.5- to 2-fold in LPS-stimulated A549 cells, compared with the control group (Figures 4B–D). […] Compared to the positive control (Dex at 5 µM), UJ treatment at 20 µM gave rise to a greater decrease in the TNF-α protein level and IL-6 and IL-8 mRNA. […]

[6] = tested on: SARS-CoV-2; experiment: Plaque assay in SARS-CoV-2-infected Vero E6 cells; type: cell-based
[7] = 1 h before 10 μg/ml LPS, 24 h, A549 cells

Row | SMILES | IC50 [1] | relative SARS-CoV-2 3CLpro activity (down from 100%) [1] | potency in reducing the levels of the four proinflammatory factors (TNF-α, IL-6, IL-1β, IL-8), compared to UJ [2] | relative SARS-CoV 3CLpro activity (down from 100%) [3] | further results
1 | COc1c(-c2ccc(O)cc2)oc2cc(O)cc(O)c2c1=O [Ikae, isokaempferide] | > 20 µM and 40.2 µM | 60–70% | relatively moderate potency | 60–70% | 
2 | O=c1cc(-c2ccc(O)c(O)c2)oc2cc(O)cc(O)c12 [Lu, luteolin] | > 20 µM and 20.5 µM |  |  |  | 
3 | O=c1c(O)c(-c2ccc(O)cc2)oc2cc(O)cc(O)c12 [Kae, kaempferol] | > 20 µM and 21.7 µM | 60–70% | relatively moderate potency | 60–70% | 
4 | C=C1CCCC(C)(C)[C@@H]1Cc1c(O)cc2oc(-c3ccc(O)c(O)c3)cc(=O)c2c1O [UJ, ugonin J] | 0.94 µM and ~0.94 µM | about 15% |  | about 15% | CC50 at 48 h [4]: ~783 µM; downregulation of IL-1β mRNA expression level [2, 7]: more than 1 fold; downregulation of IL-6 mRNA expression level [2, 7]: more than 1 fold; downregulation of IL-8 mRNA expression level [2, 7]: more than 1 fold; reduction of TNF-α protein expression level [5]: more than 2 fold; EC50 ([6]; Severe acute respiratory syndrome coronavirus 2, Vero C1008, Vero E6 cells, 100 PFU, 1 h pretreatment, 3 days, N = 3, mean ± SEM, read-out: half-maximal effective concentration (EC50) against SARS-CoV-2 infection): ~2.38 µM; prevention of SARS-CoV-2 infection ([6]; pretreatment at 10 µM, Vero E6 cells, plaque assay): near complete prevention
5 | CCC(CC)COC(=O)[C@H](C)N[P@](=O)(OC[C@H]1O[C@@](C#N)(c2ccc3c(N)ncnn23)[C@H](O)[C@@H]1O)Oc1ccccc1 [Rem, Remdesivir] |  |  |  |  | inhibition at 2 µM ([6]; Severe acute respiratory syndrome coronavirus 2, Vero C1008, 2 µM, Vero E6 cells, plaque assay, read-out: inhibition of SARS-CoV-2 infection): ~95%
